Experimental data: PubChem BioAssay AID1745844 (Carcinogenic Potency Database (CPDB), 2022)
Calls of active or inactive are those of the source. The rule behind the calls is not given here.

System: rodent lifetime carcinogenesis bioassay, tumor incidence TD50
Assay: carcinogenic potency in animals, long-term in vivo studies, CPDB compilation (AID 1745844)

CC(=O)NNc1ccccc1 showed a TD50 (mouse, strain Swiss albino, females, in drinking water, site: blood vessels, lesion: angioma, dosed 111 weeks, study length 111 weeks) of 117 mg/kg/day, a TD50 (mouse, strain Swiss albino, females, in drinking water, site: blood vessels, lesion: angiosarcoma, dosed 111 weeks, study length 111 weeks) of 117 mg/kg/day and a TD50 (mouse, strain Swiss albino, females, in drinking water, site: blood vessels, lesion: several types, types named in the paper, dosed 111 weeks, study length 111 weeks) of 49 mg/kg/day. The TD50 (mouse, strain Swiss albino, females, in drinking water, site: liver, lesion: angioma, dosed 111 weeks, study length 111 weeks) was 105 mg/kg/day, the TD50 (mouse, strain Swiss albino, females, in drinking water, site: liver, lesion: angiosarcoma, dosed 111 weeks, study length 111 weeks) was 105 mg/kg/day and the TD50 (mouse, strain Swiss albino, females, in drinking water, site: liver, lesion: several types, types named in the paper, dosed 111 weeks, study length 111 weeks) was 44.8 mg/kg/day. The TD50 (mouse, strain Swiss albino, females, in drinking water, site: lung, lesion: adenoma, dosed 111 weeks, study length 111 weeks) was 413 mg/kg/day (inactive), the TD50 (mouse, strain Swiss albino, males, in drinking water, site: blood vessels, lesion: angioma, dosed 106 weeks, study length 106 weeks) was 113 mg/kg/day and the TD50 (mouse, strain Swiss albino, males, in drinking water, site: blood vessels, lesion: angiosarcoma, dosed 106 weeks, study length 106 weeks) was 161 mg/kg/day. The TD50 (mouse, strain Swiss albino, males, in drinking water, site: blood vessels, lesion: several types, types named in the paper, dosed 106 weeks, study length 106 weeks) was 59.8 mg/kg/day, the TD50 (mouse, strain Swiss albino, males, in drinking water, site: liver, lesion: angioma, dosed 106 weeks, study length 106 weeks) was 128 mg/kg/day and the TD50 (mouse, strain Swiss albino, males, in drinking water, site: liver, lesion: angiosarcoma, dosed 106 weeks, study length 106 weeks) was 146 mg/kg/day. The TD50 (mouse, strain Swiss albino, males, in drinking water, site: liver, lesion: several types, types named in the paper, dosed 106 weeks, study length 106 weeks) was 62.1 mg/kg/day, the carcinogen call (mouse, strain Swiss albino, males, in drinking water, site: lung, lesion: adenocarcinoma, dosed 106 weeks, study length 106 weeks) was “negative (inactive)” and the carcinogen call (mouse, strain Swiss albino, males, in drinking water, site: lung, lesion: adenoma, dosed 106 weeks, study length 106 weeks) was “negative (inactive)”.

Compound [O-][Cl+]O has a TD50 (mouse, strain B6C3F1, females, in drinking water, site: liver, lesion: several types, types named in the paper, dosed 85 weeks, study length 85 weeks) of 3060 mg/kg/day, a TD50 (mouse, strain B6C3F1, males, in drinking water, site: any site (literature study), lesion: several types, types named in the paper, dosed 85 weeks, study length 85 weeks) of 169 mg/kg/day and a TD50 (mouse, strain B6C3F1, males, in drinking water, site: liver, lesion: hyperplastic nodule, dosed 85 weeks, study length 85 weeks) of 146 mg/kg/day. For the same compound, the TD50 (mouse, strain B6C3F1, males, in drinking water, site: liver, lesion: several types, types named in the paper, dosed 85 weeks, study length 85 weeks) was 110 mg/kg/day, the TD50 (mouse, strain B6C3F1, males, in drinking water, site: lung, lesion: adenoma, dosed 85 weeks, study length 85 weeks) was 346 mg/kg/day and the TD50 (mouse, strain B6C3F1, males, in drinking water, site: lung, lesion: several types, types named in the paper, dosed 85 weeks, study length 85 weeks) was 237 mg/kg/day. The carcinogen call (rat, strain Fischer 344, females, in drinking water, site: any site (literature study), lesion: several types, types named in the paper, dosed 85 weeks, study length 85 weeks) was “negative (inactive)” and the carcinogen call (rat, strain Fischer 344, males, in drinking water, site: any site (literature study), lesion: several types, types named in the paper, dosed 85 weeks, study length 85 weeks) was “negative (inactive)”.

Compound CC(C)=NNc1nc(-c2ccc([N+](=O)[O-])o2)cs1 has a TD50 (rat, strain Holtzman albino (Sprague-Dawley derived), females, in feed, site: forestomach, lesion: squamous-cell papilloma, dosed 36 weeks, study length 54 weeks) of 11 mg/kg/day and a TD50 (rat, strain Holtzman albino (Sprague-Dawley derived), females, in feed, site: forestomach, lesion: squamous-cell papilloma, dosed 44 weeks, study length 60 weeks) of 6.05 mg/kg/day.

In the case of CCSCC[C@H](N)C(=O)O, the carcinogen call (rat, strain Wistar, males, in feed, site: liver, lesion: carcinoma, dosed 34 weeks, study length 52 weeks) is reported as “positive”.

Work on CCNC(=O)N(C=O)CCN(C)C yielded a TD50 (rat, strain Fischer 344, females, by gavage, site: cervix, lesion: adenocarcinoma, dosed 37 weeks, study length 102 weeks) of 5.35 mg/kg/day, a TD50 (rat, strain Fischer 344, females, by gavage, site: lung, lesion: one or several types, types not named, dosed 37 weeks, study length 102 weeks) of 5.35 mg/kg/day and a TD50 (rat, strain Fischer 344, females, by gavage, site: mammary gland, lesion: adenocarcinoma, dosed 37 weeks, study length 102 weeks) of 3.39 mg/kg/day. The TD50 (rat, strain Fischer 344, females, by gavage, site: mammary gland, lesion: adenoma, dosed 37 weeks, study length 102 weeks) was 11.2 mg/kg/day, the TD50 (rat, strain Fischer 344, females, by gavage, site: mammary gland, lesion: fibroadenoma, dosed 37 weeks, study length 102 weeks) was 0.704 mg/kg/day and the TD50 (rat, strain Fischer 344, females, by gavage, site: uterus, lesion: adenoma, dosed 37 weeks, study length 102 weeks) was 11.2 mg/kg/day. It also gave a TD50 (rat, strain Fischer 344, females, by gavage, site: uterus, lesion: endometrial polyp, dosed 37 weeks, study length 102 weeks) of 1.41 mg/kg/day, a TD50 (rat, strain Fischer 344, males, by gavage, site: lung, lesion: one or several types, types not named, dosed 37 weeks, study length 102 weeks) of 2.37 mg/kg/day and a TD50 (rat, strain Fischer 344, males, by gavage, site: skin, lesion: keratoacanthoma, dosed 37 weeks, study length 102 weeks) of 1.92 mg/kg/day.

In the case of OC[C@H]1O[C@@H]2O[C@H]3[C@H](O)[C@@H](O)[C@@H](O[C@H]4[C@H](O)[C@@H](O)[C@@H](O[C@H]5[C@H](O)[C@@H](O)[C@@H](O[C@H]6[C@H](O)[C@@H](O)[C@@H](O[C@H]7[C@H](O)[C@@H](O)[C@@H](O[C@H]8[C@H](O)[C@@H](O)[C@@H](O[C@H]1[C@H](O)[C@H]2O)O[C@@H]8CO)O[C@@H]7CO)O[C@@H]6CO)O[C@@H]5CO)O[C@@H]4CO)O[C@@H]3CO, the carcinogen call (mouse, strain Charles River CD1, females, in feed, site: lung, lesion: several types, types named in the paper, dosed 104 weeks, study length 104 weeks) is reported as “negative (inactive)”, the TD50 (mouse, strain Charles River CD1, males, in feed, site: lung, lesion: several types, types named in the paper, dosed 93 weeks, study length 93 weeks) is reported as 728 mg/kg/day (inactive) and the carcinogen call (rat, strain Charles River CD (Sprague-Dawley), females, in feed, site: liver, lesion: one or several types, types not named, dosed 52 weeks, study length 52 weeks) is reported as “negative (inactive)”. For the same compound, the carcinogen call (rat, strain Charles River CD (Sprague-Dawley), males, in feed, site: liver, lesion: one or several types, types not named, dosed 52 weeks, study length 52 weeks) was “negative (inactive)”, the TD50 (rat, strain F344/DuCrj, females, in feed, site: any site (literature study), lesion: several types, types named in the paper, dosed 104 weeks, study length 109 weeks) was 85900 mg/kg/day (inactive) and the carcinogen call (rat, strain F344/DuCrj, females, in feed, site: liver, lesion: hepatocellular adenoma, dosed 104 weeks, study length 109 weeks) was “negative (inactive)”. The carcinogen call (rat, strain F344/DuCrj, males, in feed, site: any site (literature study), lesion: several types, types named in the paper, dosed 104 weeks, study length 109 weeks) was “negative (inactive)”, the carcinogen call (rat, strain F344/DuCrj, males, in feed, site: liver, lesion: hepatocellular adenoma, dosed 104 weeks, study length 109 weeks) was “negative (inactive)” and the TD50 (rat, strain Fischer 344, females, in feed, site: uterus, lesion: adenocarcinoma, dosed 129 weeks, study length 129 weeks) was 22700 mg/kg/day (inactive). The TD50 (rat, strain Fischer 344, males, in feed, site: testis, lesion: interstitial-cell tumor, dosed 122 weeks, study length 122 weeks) was 157 mg/kg/day (inactive).

C/C1=C\C=C(\C(C)C)[C@@H](O)C/C(C)=C/CC/C(C)=C/CC1 was tested, and the carcinogen call (mouse, strain C3H/HeN, males, in feed, site: liver, lesion: hepatoma, dosed 65 weeks, study length 65 weeks) was “negative (inactive)”.

With Nc1cc([N+](=O)[O-])ccc1C(=O)O the carcinogen call (mouse, strain B6C3F1, females, in feed, site: any site (literature study), lesion: several types, types named in the paper, dosed 78 weeks, study length 93 weeks) was “negative (inactive)”, the TD50 (mouse, strain B6C3F1, females, in feed, site: lung, lesion: alveolar/bronchiolar adenoma + alveolar/bronchiolar carcinoma, dosed 78 weeks, study length 93 weeks) was 2560 mg/kg/day and the TD50 (mouse, strain B6C3F1, males, in feed, site: all sites, lesion: hemangioma + hemangiosarcoma, dosed 78 weeks, study length 93 weeks) was 12600 mg/kg/day (inactive). For the same compound, the TD50 (mouse, strain B6C3F1, males, in feed, site: any site (literature study), lesion: several types, types named in the paper, dosed 78 weeks, study length 93 weeks) was 1660 mg/kg/day, the carcinogen call (rat, strain Fischer 344, females, in feed, site: any site (literature study), lesion: several types, types named in the paper, dosed 78 weeks, study length 105 weeks) was “negative (inactive)” and the TD50 (rat, strain Fischer 344, females, in feed, site: liver, lesion: hepatocellular adenoma + hepatocellular carcinoma + neoplastic nodule, dosed 78 weeks, study length 105 weeks) was 11800 mg/kg/day. The carcinogen call (rat, strain Fischer 344, males, in feed, site: any site (literature study), lesion: several types, types named in the paper, dosed 78 weeks, study length 105 weeks) was “negative (inactive)” and the TD50 (rat, strain Fischer 344, males, in feed, site: liver, lesion: hepatocellular adenoma + hepatocellular carcinoma + neoplastic nodule, dosed 78 weeks, study length 105 weeks) was 3710 mg/kg/day.

With S=C=Nc1ccccc1 the TD50 (mouse, strain B6AKF1, females, oral dosing, site: any site (literature study), lesion: several types, types named in the paper, dosed 76 weeks, study length 76 weeks) was 39.4 mg/kg/day (inactive), the TD50 (mouse, strain B6AKF1, females, oral dosing, site: liver, lesion: hemangioma, dosed 76 weeks, study length 76 weeks) was 138 mg/kg/day (inactive) and the carcinogen call (mouse, strain B6AKF1, females, oral dosing, site: lung, lesion: adenoma, dosed 76 weeks, study length 76 weeks) was “negative (inactive)”. For the same compound, the carcinogen call (mouse, strain B6AKF1, males, oral dosing, site: any site (literature study), lesion: several types, types named in the paper, dosed 76 weeks, study length 76 weeks) was “negative (inactive)”, the carcinogen call (mouse, strain B6AKF1, males, oral dosing, site: liver, lesion: hepatoma, dosed 76 weeks, study length 76 weeks) was “negative (inactive)” and the carcinogen call (mouse, strain B6AKF1, males, oral dosing, site: lung, lesion: adenoma, dosed 76 weeks, study length 76 weeks) was “negative (inactive)”. For the same compound, the carcinogen call (mouse, strain B6C3F1, females, oral dosing, site: any site (literature study), lesion: one or several types, types not named, dosed 76 weeks, study length 76 weeks) was “negative (inactive)”, the carcinogen call (mouse, strain B6C3F1, females, oral dosing, site: liver, lesion: hepatoma, dosed 76 weeks, study length 76 weeks) was “negative (inactive)” and the carcinogen call (mouse, strain B6C3F1, females, oral dosing, site: lung, lesion: several types, types named in the paper, dosed 76 weeks, study length 76 weeks) was “negative (inactive)”. The TD50 (mouse, strain B6C3F1, males, oral dosing, site: any site (literature study), lesion: several types, types named in the paper, dosed 76 weeks, study length 76 weeks) was 40.2 mg/kg/day (inactive), the TD50 (mouse, strain B6C3F1, males, oral dosing, site: liver, lesion: hepatoma, dosed 76 weeks, study length 76 weeks) was 128 mg/kg/day (inactive) and the TD50 (mouse, strain B6C3F1, males, oral dosing, site: lung, lesion: adenoma, dosed 76 weeks, study length 76 weeks) was 128 mg/kg/day (inactive).

Work on CCC(C)=NO yielded a TD50 (mouse, strain Charles River CD1, females, inhaled, site: liver, lesion: hepatocellular adenoma, dosed 78 weeks, study length 78 weeks) of 2440 mg/kg/day, a TD50 (mouse, strain Charles River CD1, females, inhaled, site: lung, lesion: adenoma, dosed 78 weeks, study length 78 weeks) of 5880 mg/kg/day and a TD50 (mouse, strain Charles River CD1, males, inhaled, site: liver, lesion: hepatocellular adenoma, dosed 78 weeks, study length 78 weeks) of 1460 mg/kg/day. The TD50 (mouse, strain Charles River CD1, males, inhaled, site: liver, lesion: hepatocellular carcinoma, dosed 78 weeks, study length 78 weeks) was 810 mg/kg/day, the TD50 (mouse, strain Charles River CD1, males, inhaled, site: liver, lesion: several types, types named in the paper, dosed 78 weeks, study length 78 weeks) was 534 mg/kg/day and the TD50 (mouse, strain Charles River CD1, males, inhaled, site: lung, lesion: adenoma, dosed 78 weeks, study length 78 weeks) was 1100 mg/kg/day. The TD50 (rat, strain Fischer 344, females, inhaled, site: liver, lesion: hepatocellular adenoma, dosed 113 weeks, study length 113 weeks) was 804 mg/kg/day, the TD50 (rat, strain Fischer 344, males, inhaled, site: liver, lesion: hepatocellular adenoma, dosed 113 weeks, study length 113 weeks) was 118 mg/kg/day and the TD50 (rat, strain Fischer 344, males, inhaled, site: liver, lesion: hepatocellular carcinoma, dosed 113 weeks, study length 113 weeks) was 242 mg/kg/day. For the same compound, the TD50 (rat, strain Fischer 344, males, inhaled, site: liver, lesion: several types, types named in the paper, dosed 113 weeks, study length 113 weeks) was 74.5 mg/kg/day, the TD50 (rat, strain Fischer 344, males, inhaled, site: mammary gland, lesion: fibroadenoma, dosed 113 weeks, study length 113 weeks) was 346 mg/kg/day and the TD50 (rat, strain Fischer 344, males, inhaled, site: skin, lesion: fibroma, dosed 113 weeks, study length 113 weeks) was 84.8 mg/kg/day.
